Source: patent US11352368B2, “Salt of fused ring pyrimidine compound, crystal form thereof and preparation method therefor and use thereof” (GUANGZHOU MAXINOVEL PHARMACEUTICALS CO., LTD., priority 2018, dated 2022)

What was measured:
[1] = Pharmacokinetic experiment, single intragastric dose in rats; type: in vivo, SD rats; settings: single dose 10 mg/kg, 0.5% MC and 0.5% Tween80 in water
Method: 1) Preparation of animals 9 healthy male SD rats, each with a body weight of 220-230 g, were taken, fed with standard formulated granulated feed for rats at fixed times every day, and fasted for 12 hours before the experiment, and feeding was resumed after 4 hours of administration. Rats were free to drink water before, after and during the experiment. 9 rats were randomly divided into 3 groups.
2) Formulation of drugs: The fused ring pyrimidine compound as shown in formula 1, the crystal form A of the fumarate of fused ring pyrimidine compound as shown in formula 2 and the crystal form B of the adipate of fused ring pyrimidine compound as shown in formula 3 were accurately weighed, and were formulated into a 1 mg/mL solution in water (Wahaha/111830) with 0.5% MC (Fluka/BCBK3534K) and 0.5% Tween80 (TCl/V4FSC), respectively.
3) Intragastric administration with single dose (10 mg/kg): in the first group, rats were intragastrically administered with a solution of the fused ring pyrimidine compound as shown in formula 1, in the second group, rats were intragastrically administered with a solution of the crystal form A of the fumarate of fused ring pyrimidine compound as shown in formula 2, and in the third group, rats were intragastrically administered with a solution of the crystal form B of the adipate of fused ring pyrimidine compound as shown in formula 3.
4) Collection of blood samples: About 150 μL of blood was taken from the fundus venous plexus before administration and 0.083, 0.25, 0.5, 1, 2, 4, 8 and 24 hours after administration from each rat in the three groups, and anticoagulated with K2EDTA, plasma was separated by centrifugation and the supernatant was collected for LC-MS analysis.

[2] = system: FGFR; settings: cited from earlier work
[3] = system: JAK; settings: cited from earlier work
[4] = system: Src kinase; settings: cited from earlier work
[5] = Stability test (total impurities, 20 days); type: physicochemical
Method: The crystal form A of the fumarate of fused ring pyrimidine compound as shown in formula 2, the crystal form B of the adipate of fused ring pyrimidine compound as shown in formula 3 and the fused ring pyrimidine compound as shown in formula 1 were subjected to tests at a high temperature of 60° C., 25° C./60% RH, 40° C./75% RH and highlight irradiation (4500 lx±500 lx), the test time was 20 days, the sample bottles were placed under different test conditions, and samples were taken at 0 and 20 days to detect the total amount of impurities, and the test results were shown in Table 8 below.

[6] = Solubility test of crystal form A and crystal form B in a medium (Example 12); type: physicochemical; settings: for Solubility (calculated by free base of the fused ring pyrimidine compound): in mg/mL (unit assumed)
Source text: Example 12 Solubility Test of the Crystal Form A of the Fumarate of Fused Ring Pyrimidine Compound as Shown in Formula 2 and the Crystal Form B of the Adipate of Fused Ring Pyrimidine Compound as Shown in Formula 3 in a Medium

[7] = biological target: T1, FLT3 (Homo sapiens, UniProt P36888); settings: cited from earlier work
T1 sequence (P36888 27-993): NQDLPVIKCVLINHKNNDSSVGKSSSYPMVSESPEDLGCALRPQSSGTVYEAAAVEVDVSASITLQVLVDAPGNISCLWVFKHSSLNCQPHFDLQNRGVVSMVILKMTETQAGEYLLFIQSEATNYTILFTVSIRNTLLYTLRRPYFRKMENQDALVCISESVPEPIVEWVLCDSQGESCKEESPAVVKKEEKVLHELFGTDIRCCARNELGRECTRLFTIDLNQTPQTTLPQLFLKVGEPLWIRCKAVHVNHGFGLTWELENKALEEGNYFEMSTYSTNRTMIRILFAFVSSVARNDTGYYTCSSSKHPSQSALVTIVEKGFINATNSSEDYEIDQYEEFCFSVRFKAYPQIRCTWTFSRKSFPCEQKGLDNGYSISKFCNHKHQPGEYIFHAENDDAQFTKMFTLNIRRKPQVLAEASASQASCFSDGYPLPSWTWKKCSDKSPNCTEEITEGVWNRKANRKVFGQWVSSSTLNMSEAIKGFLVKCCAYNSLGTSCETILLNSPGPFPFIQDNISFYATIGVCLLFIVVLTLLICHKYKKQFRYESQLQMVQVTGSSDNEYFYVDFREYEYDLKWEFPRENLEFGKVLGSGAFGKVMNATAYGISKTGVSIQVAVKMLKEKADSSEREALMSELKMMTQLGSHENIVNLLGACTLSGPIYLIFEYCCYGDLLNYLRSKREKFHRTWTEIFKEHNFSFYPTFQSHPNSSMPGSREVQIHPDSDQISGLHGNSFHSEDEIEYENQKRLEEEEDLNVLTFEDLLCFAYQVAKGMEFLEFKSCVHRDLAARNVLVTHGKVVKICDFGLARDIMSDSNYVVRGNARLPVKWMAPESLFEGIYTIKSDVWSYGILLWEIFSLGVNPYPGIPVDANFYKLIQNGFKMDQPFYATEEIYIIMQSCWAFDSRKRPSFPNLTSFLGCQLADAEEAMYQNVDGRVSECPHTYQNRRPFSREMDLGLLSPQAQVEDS

[8] = Solubility test of the salts in pure water (Example 6); type: physicochemical; settings: room temperature, balancing about 20 hours, HPLC
Method: 2.0 mg of sample was precisely weighed into a liquid phase vial, 1.0 mL of purified water was added, the vial was subjected to ultrasonic treatment for about 30 seconds to disperse the samples evenly, then the vial was placed on a Labquaker rotator, and slowly rotated at room temperature for balancing. After balancing for about 20 hours, each vial was removed, and the solution was filtered with 0.45 μm nylon filter membrane. The filtrate was diluted by DMSO or not diluted and then detected by HPLC. At the same time, two parts of fused ring pyrimidine compounds were weighed and dissolved in DMSO to make standard solutions with concentration of 250 μg/mL and 500 μg/mL, respectively. The standard solutions were subjected to the HPLC detection. The sample concentration vs the peak area of HPLC principal component was used for make a standard curve, and the solubility of each sample in pure water was calculated by a external standard method.

[9] = medium intestinal fluid in simulated fed state (FeSSIF)
[10] = medium pH 4 (50 mM phosphate buffer)
[11] = medium pH 6 (50 mM phosphate buffer)

Blood drug concentration (AUC) [1]: 57.7 ng·h/mL
Impurity content ([5]; Day 0): 1.44%
Impurity content ([5]; Day 20, 25° C/60% RH): 1.46%
Impurity content ([5]; Day 20, 40° C/75% RH): 1.49%
Impurity content ([5]; Day 20, 60° C): 1.44%
Impurity content ([5]; Day 20, Light (4500 lx±500 lx)): 2.06%
chemical stability in the condition of high temperature and high humidity ([5]; high temperature and high humidity, 20 days): good chemical stability
pH value of sample solution for solubility ([6]; medium Purified water): 8.29
Solubility (calculated by free base of the fused ring pyrimidine compound) ([6]; medium Purified water): <0.001
pH value of sample solution for solubility [6, 9]: 5.27
Solubility (calculated by free base of the fused ring pyrimidine compound) [6, 9]: 1.469
pH value of sample solution for solubility [6, 10]: 5.67
Solubility (calculated by free base of the fused ring pyrimidine compound) [6, 10]: 0.054
pH value of sample solution for solubility [6, 11]: 6.29
Solubility (calculated by free base of the fused ring pyrimidine compound) [6, 11]: 0.025
saturated solubility [8]: <1 µg/mL
Compound: COc1cc(F)ccc1-c1c(C)sc2cnc(Nc3cnn(C4CCNCC4)c3)nc12 [The fused ring pyrimidine compound as shown in formula 1] [N-[7-(4-fluoro-2-methoxyphenyl)-6-methylthieno[3,2-d]pyrimidin-2-yl]-1-(piperidin-4-yl)-1H-pyrazol-4-amine]
inhibitory effect on FGFR [2]: good inhibitory effect
inhibitory effect on JAK [3]: good inhibitory effect
inhibitory effect on Src kinase [4]: good inhibitory effect
inhibitory effect on FLT3 [7]: good inhibitory effect
